Experimental findings from patent publication US6365135B1, “Use of amino phenol amide derivatives as depigmentation agents” (L'Oreal, priority 1997, dated 2002) are described below.

The test system of the assay is co-culture of keratinocytes and melanocytes. Kind of assay: Depigmenting activity test: inhibition of melanogenesis on a co-culture of keratinocytes and melanocytes. The conditions noted are these: for Class (maximum depigmenting activity): inhibition of melanogenesis relative to the control; for IC50: co-culture of keratinocytes and melanocytes, read-out: IC50 (concentration for which a 50% inhibition of melanogenesis is observed). Type of assay: cell-based. As for the experimental part: This test corresponds to the one described in patent FR 2,734,825 filed by the Applicant, as well as in the article by R. Schmidt, P. Krien and M. Régnier, Anal. Biochem., 235 (2), 113-18, (1996). This test is thus carried out on a co-culture of keratinocytes and melanocytes.
For each test compound, the IC50 value, which corresponds to the micromolar concentration (μM) for which a 50% inhibition of melanogenesis is observed, is determined.
Moreover, a class is given to each of these compounds as regards their maximum depigmenting activity:
class 1: 10 to 30% inhibition of melanogenesis relative to the control (same experiment without test compound);
class 2: 30 to 60% inhibition of melanogenesis relative to the control (same experiment without test compound);
class 3: 60 to 100% inhibition of melanogenesis relative to the control (same experiment without test compound).

The structures appear in SMILES notation.

Take `O=c1cc(CO)occ1O` [Kojic acid]: the IC50 was found to be 500 µM. Also, the “Class (maximum depigmenting activity)” value (500 μM) is 2 to 500 μM (class 2: 30 to 60% inhibition of melanogenesis relative to the control (same experiment without test compound)).
As for `CCCCCCCCCCCC(=O)Oc1ccc(NC(C)=O)cc1` [Lauroyl [4-(N-acetylamino)] phenol, Lauroyl [4-(N-acetylamino)]phenol], the IC50 is greater than 100 µM. In addition, the “Class (maximum depigmenting activity)” value (100 μM) is 2 to 100 μM (class 2: 30 to 60% inhibition of melanogenesis relative to the control (same experiment without test compound)).
